Measured values taken from patent US20250041284A1, “TREATMENT OF NEUROLOGICAL DISORDERS” (Praxis Precision Medicines, Inc., priority 2022, published 2025).
“And” between values parts separate entries of the source, which are not always exact repeats. Identical values can stand only once. “Also recorded” adds a separate entry of the source.

Tests used:
[1] = tested on: psychomotor seizures induced by 6-Hz electrical stimulation in wild-type CD-1 mice; experiment: 6-Hz psychomotor seizure model; format: in vivo, mouse; set-up: EC50 value, protection from psychomotor seizures: unit not given here
Source text: This study evaluated the efficacy of Compound 1 in attenuating psychomotor seizures induced by 6-Hz electrical stimulation at two different stimulation intensities (32 and 44 mA) in wild-type CD-1 mice. Psychomotor seizures are defined as the expression of at least one of the following behaviors: stun/immobility, forelimb clonus, straub tail or lateral head movement within 30 seconds of the stimulus. Protection is defined as a complete absence of the above behaviors within 30 seconds of the stimulus. Doses of Compound 1 used were 1 mg/kg, 3 mg/kg and 6 mg/kg administered orally. Valproate (600 mg/kg, administered intraperitoneally) was used as a positive control.
Male CD-1 mice (Charles River Laboratories; St. Constant, Quebec, CAN) were used for the study. Body weights at the time the experiment was carried out were 30-40 grams. The mice were group-housed in polycarbonate cages according to standard operating procedures. Animals were maintained on a 12-hour light/12 hour dark cycle, with all experimental activities occurring during the light phase. Food and water were available ad libitum. Mice acclimated to the test facility for at least 72 hours prior to testing.
Treatment was conducted using Compound 1 and 35% 2-hydroxypropyl-β-cyclodextrin (35% HPBCD, used as a negative control). Compound 1 stock solution was prepared fresh each experiment day in 35% HPBCD. […] Valproate was prepared fresh each experiment day in a vehicle of saline and dosed at 10 mL/kg.
Mice were administered vehicle (35% HPBCD), a single dose of Compound 1 (1 mg/kg, 3 mg/kg or 6 mg/kg) or valproate (600 mg/kg). Vehicle and Compound 1 were administered via oral gavage 30 minutes prior to […]. Valproate was administered as an intraperitoneal injection 60 minutes prior to the electrical stimulus.
Immediately prior to conducting the 6-Hz seizure test, a brief neurological assessment was performed. Each animal was visually assessed and received a score from 0 to 3 according to the following scoring system::neurological score of 0 corresponds to a normal status; neurological score of 1 corresponds to a modest decrease in spontaneous activity; neurological score of 2 corresponds to a marked decrease in spontaneous activity; and neurological score of 3 corresponds to loss of righting reflex.
Corneal electrodes moistened with saline (ECT unit 57800; Ugo Basile) were used to deliver the electrical stimulus (6-Hz, 0.2 millisecond pulse width, 3 seconds duration). The current delivered was either 32 mA or 44 mA. Immediately after the electrical stimulus, each mouse was monitored continuously for 30 seconds by an observer blinded to the treatment group. […] Mice were scored for the presence or absence of each seizure behavior, with a maximum total score of 4. […] At the end of the 6-Hz seizure test, plasma and brain samples were collected.
Mice were anesthetized with isoflurane, whole blood was collected via cardiac puncture and brains were harvested. Whole blood was collected in potassium EDTA tubes and centrifuged at ˜3300 g for 5 minutes at 4° C. to isolate plasma. Plasma and brain samples were stored at −80° C. and analyzed to determine levels of Compound 1.
All statistical analyses were conducted using GraphPad Prism 9.3. Seizure scores were compared using Kruskal-Wallis test, followed by Dunn's post hoc and p<0.05 was considered statistically significant.

hNaV1.6 = molecular target: T1, hNaV1.6 (Homo sapiens, UniProt Q9UQD0); experiment: Apparent binding (KON) and unbinding (KOFF) rates inferred from INa inhibition kinetics; format: cell-based
T1 construct: expressed in transfected cells; host or cells: HEK cells

human NaV1.6 [2] = molecular target: T2, human NaV1.6 (Homo sapiens, UniProt Q9UQD0); experiment: Persistent (late) INa inhibition, ATX-II activated, automated patch clamp in HEK cells; format: cell-based
T2 construct: HEK-293 cell lines stably expressing human NaV1.6 (NP_055006) were used; expressed in transfected cells

human NaV1.6 [3] = molecular target: T2, human NaV1.6; experiment: Peak INa use-dependent block (UDB-10 Hz), automated patch clamp in HEK cells; format: cell-based
[4] = recovery from inhibition of hNaV1.6 INa

T1 sequence (Q9UQD0 whole entry): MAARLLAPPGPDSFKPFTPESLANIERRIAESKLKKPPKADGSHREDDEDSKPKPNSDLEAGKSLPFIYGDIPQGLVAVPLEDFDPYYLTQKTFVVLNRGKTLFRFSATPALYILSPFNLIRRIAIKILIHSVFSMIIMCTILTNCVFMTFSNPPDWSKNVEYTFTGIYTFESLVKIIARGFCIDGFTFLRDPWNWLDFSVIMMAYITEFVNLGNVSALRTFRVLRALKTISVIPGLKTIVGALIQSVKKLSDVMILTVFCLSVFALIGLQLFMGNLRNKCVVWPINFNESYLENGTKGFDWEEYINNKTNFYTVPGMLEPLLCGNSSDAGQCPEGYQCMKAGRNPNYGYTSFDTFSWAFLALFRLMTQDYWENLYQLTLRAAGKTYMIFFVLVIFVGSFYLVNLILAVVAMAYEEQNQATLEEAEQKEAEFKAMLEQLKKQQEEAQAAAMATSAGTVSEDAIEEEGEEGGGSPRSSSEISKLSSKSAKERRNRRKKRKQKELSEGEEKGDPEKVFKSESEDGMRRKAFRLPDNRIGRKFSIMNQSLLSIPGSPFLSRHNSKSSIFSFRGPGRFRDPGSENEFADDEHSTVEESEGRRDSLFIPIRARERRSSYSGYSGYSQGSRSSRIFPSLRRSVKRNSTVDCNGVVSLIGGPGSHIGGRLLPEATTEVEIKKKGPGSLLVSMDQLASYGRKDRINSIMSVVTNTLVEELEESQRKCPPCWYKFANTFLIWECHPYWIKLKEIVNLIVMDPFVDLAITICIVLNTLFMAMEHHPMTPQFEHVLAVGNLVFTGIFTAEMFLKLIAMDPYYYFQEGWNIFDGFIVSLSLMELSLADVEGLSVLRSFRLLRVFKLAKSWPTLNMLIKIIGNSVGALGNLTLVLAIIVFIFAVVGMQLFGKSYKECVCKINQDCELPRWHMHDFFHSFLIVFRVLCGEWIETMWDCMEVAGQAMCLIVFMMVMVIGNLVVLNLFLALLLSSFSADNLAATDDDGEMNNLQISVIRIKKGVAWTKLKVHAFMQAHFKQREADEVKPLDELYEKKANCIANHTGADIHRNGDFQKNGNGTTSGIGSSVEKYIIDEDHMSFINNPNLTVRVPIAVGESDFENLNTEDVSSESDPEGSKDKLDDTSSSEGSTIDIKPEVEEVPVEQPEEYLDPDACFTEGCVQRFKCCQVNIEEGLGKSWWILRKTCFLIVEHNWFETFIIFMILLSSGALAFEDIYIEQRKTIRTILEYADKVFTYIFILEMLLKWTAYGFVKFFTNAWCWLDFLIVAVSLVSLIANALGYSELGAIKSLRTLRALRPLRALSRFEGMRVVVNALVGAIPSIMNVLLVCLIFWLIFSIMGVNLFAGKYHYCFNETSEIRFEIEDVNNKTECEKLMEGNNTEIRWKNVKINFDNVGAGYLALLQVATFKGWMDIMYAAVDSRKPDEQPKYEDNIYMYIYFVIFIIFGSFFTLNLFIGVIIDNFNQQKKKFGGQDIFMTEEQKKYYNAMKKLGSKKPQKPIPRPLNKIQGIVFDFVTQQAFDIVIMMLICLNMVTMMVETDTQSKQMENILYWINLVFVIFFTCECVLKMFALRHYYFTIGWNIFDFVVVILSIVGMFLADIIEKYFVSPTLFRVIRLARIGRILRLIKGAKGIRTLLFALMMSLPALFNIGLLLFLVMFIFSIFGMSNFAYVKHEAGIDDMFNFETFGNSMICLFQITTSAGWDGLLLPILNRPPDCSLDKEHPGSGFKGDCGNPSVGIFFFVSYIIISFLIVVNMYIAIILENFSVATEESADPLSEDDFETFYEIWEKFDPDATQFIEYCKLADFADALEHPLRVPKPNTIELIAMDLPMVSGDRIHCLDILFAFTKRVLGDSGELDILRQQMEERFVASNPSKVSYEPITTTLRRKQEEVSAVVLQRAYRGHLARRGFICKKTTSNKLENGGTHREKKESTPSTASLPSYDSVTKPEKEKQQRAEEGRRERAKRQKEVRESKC
T2 sequence (Q9UQD0 whole entry): as above

Structure (SMILES): CCOC(F)(F)c1nnc2ccc(-c3cnc(OCC(F)(F)F)c(F)c3)cn12 [Compound 1]
- seizure score ([1]; 6 mg/kg orally, 32 and 44 mA): significantly reduced the seizure score; also recorded: reduced seizure scores
- neurological scores before 6-Hz test ([1]; 1, 3, 6 mg/kg orally): all neurological scores were zero; also recorded: Neurological scores for all doses of Compound 1 tested were normal
- Plasma EC50 ([1]; 32 mA, 95% confidence interval in parentheses): 385 (383-386) ng/mL
- Plasma EC50 ([1]; 44 mA): >441 ng/mL
- ED50 ([1]; Mus musculus, dose-response curve, read-out: ED50 value, protection from psychomotor seizures): 1.9 mg/kg
- EC50 value, protection from psychomotor seizures ([1]; plasma concentration-response curve): 147
- apparent KON (hNaV1.6; development of inhibition of hNaV1.6 INa): 4.2e+06 M⁻¹ s⁻¹ and 4.168e+06 M⁻¹ s⁻¹
- kon (hNaV1.6; development of inhibition of hNaV1.6 INa, read-out: apparent KON): 4.2e+06 M⁻¹ s⁻¹
- KON versus carbamazepine (hNaV1.6; fold faster): > 1,500 ×
- KOFF slower than carbamazepine (hNaV1.6; fold slower unbinding): 33 ×
- apparent KOFF (hNaV1.6; [4]): 1.7 s⁻¹ and 1.72 s⁻¹
- koff (hNaV1.6; [4]): 1.7 s⁻¹
- Persistent INa potency relative to the other tested INa blocking agents (human NaV1.6 [2]; fold more potent): at least 550 ×
- Persistent INa Hill slope (human NaV1.6 [2]; hNaV1.6 in HEK cells, ATX-II): (1.4)
- IC50 (human NaV1.6 [2]; hNaV1.6 in HEK cells, ATX-II, Vm -120 mV, 200 ms): 128 nM
- preference for persistent INa relative to peak INa (human NaV1.6 [2]; in words, FIGS. 1A-1D): demonstrated preference for persistent INa relative to peak INa for all assay conditions
- Emax (human NaV1.6 [3]; HEK293, fitted maximum of Hill equation, read-out: Peak INa UDB-10 Hz Max effect): 100%
- UDB preference to TB (human NaV1.6 [3]; TB IC50 / UDB IC50): 44 ×
- Ratio to Pers. INa (Peak INa UDB-10 Hz) (human NaV1.6 [3]; UDB IC50 / persistent INa IC50): 1.6
- activity dependent block of peak INa (human NaV1.6 [3]; in words, FIGS. 7A-7C): enhanced activity dependent inhibition of peak INa
- Peak INa UDB-10 Hz Hill slope (human NaV1.6 [3]; use-dependent block 10 Hz): (0.7)
- IC50 (human NaV1.6 [3]; use-dependent block, Vm -120 mV, 10 Hz): 200 nM
